What all share (test): NCI anticancer screen, dose series, 48 h
Test [1] has as its system 786-0 renal.
In test [2] the test system is NCI-H226 lung.
The subject of test [3] is ACHN renal.
The test system of test [4] is COLO 205 colon.
In test [5] the test system is HCT-116 colon.
Test [6] relates to MDA-N.
Test [7] relates to DU-145 prostate.
Test [8] relates to SF-268 CNS.
Test [9] concerns SF-539 CNS.
The subject of test [10] is KM12 colon.
Test [11] deals with IGROV1 ovarian.

The source of these data is PubChem BioAssay (NCI).

Structures are written as SMILES.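 Values below derive from 48-hour exposures of cells grown in 96-well plates, with endpoints linearly interpolated between the two concentrations bracketing the appropriate inhibition level. TGI is the concentration that stops growth completely.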

With `COC(=O)c1ccc(NCC2=C(Br)C(=O)C=CC2=O)cc1Cl`, the TGI was 26.1 µM in [1]; above 100 µM in [2]; 30.7 µM in test [3]; 31.6 µM in test [4]; 31.9 µM in test [5]; 35.8 µM in [6]. Besides, the TGI in [7] was 42.5 µM; in test [8], 35.1 µM; in [9], 35.7 µM; in [10], above 100 µM; in test [11], 30.5 µM.

Regarding `O=S(=O)(O)c1cc(S(=O)(=O)O)c2c(N=Nc3ccc(N=Nc4ccccc4)cc3)c(O)ccc2c1`, the TGI in test [1], in test [2], in [3], in test [4], in test [5] and in test [6] was above 100 µM throughout. Further, the TGI in test [7], in test [8], in test [9], in [10] and in test [11] was above 100 µM in each case.

As for `Cc1cc(=O)oc2c(CNC(CC(C)C)C(=O)O)c(O)ccc12` (stereo not drawn), the TGI in test [1], in test [2], in test [3], in [4], in test [5] and in [6] was above 100 µM throughout. For the same compound, the TGI in test [7], in test [8], in [9], in [10] and in test [11] was above 100 µM throughout.

In the case of `O=C(NCCCCCN1CCC2(CCCCC2)CC1)C(C1CCCCC1)C1CCCCC1`, the TGI in test [1] was 9.65 µM; in test [2], 11.8 µM; in test [3] it was 8.68 µM; in test [4] it was 2.84 µM; in [5], 8.85 µM; in test [6], 3.51 µM. Further, the TGI amounted to 9.75 µM in test [7]; 12.5 µM in [8]; 3.43 µM in test [9]; 13 µM in test [10]; 8.78 µM in test [11].

For the compound `O=P(O)(O)CN1CCNCCN(CP(=O)(O)O)CC1`, the TGI in [1] is above 100 µM; in test [2], above 86.8 µM; in [3], above 100 µM; in test [4], 18.7 µM; in test [5] it was above 38 µM; in [6], above 72.9 µM. Also, the TGI in test [7], in [8], in test [9], in test [10] and in test [11] was above 100 µM in each case.

`FC(F)(F)c1ccc2nc(Sc3ccc4ccccc4c3)cnc2c1`: the TGI in test [1], in test [2], in test [3], in test [4], in [5] and in test [6] was above 100 µM in each case. The TGI in test [7], in test [8], in test [9], in test [10] and in [11] was above 100 µM throughout.

As to `O=c1cc(N2CCCC2)[nH]c(=O)n1-c1ccc(Cl)cc1`, the TGI in test [1], in [2], in [3], in [4], in test [5] and in [6] was above 100 µM each time. In addition, the TGI in [7], in [8], in [9], in test [10] and in test [11] was above 100 µM throughout.

Take `Cc1ccc(NC(=O)CC(=O)n2nc(C)c(N=Nc3cccc(C)c3)c2C)cc1`: the TGI in test [1], in test [2], in test [3], in test [4], in test [5] and in [6] was above 100 µM throughout. Moreover, the TGI in test [7], in test [8], in [9], in test [10] and in test [11] was above 100 µM each time.

Take `Cc1ccccc1NC(=O)Cc1csc(N=Nc2c(O)[nH]c3ccccc23)n1`: the TGI in test [1], in test [2], in [3], in test [4], in test [5] and in test [6] was above 100 µM throughout. In addition, the TGI in test [7] is above 100 µM; in test [8] it was above 100 µM; in [9] it was 32.3 µM; in [10], above 100 µM; in test [11] it was above 100 µM.

Regarding `Cc1ccc(/C=C2/N=C(N/N=C\c3ccccc3)NC2=O)cc1`, the TGI in test [1] is 55.6 µM; in test [2], above 100 µM; in [3], 38.4 µM; in test [4], above 100 µM; in test [5], above 100 µM; in [6] it was 88.2 µM. In addition, the TGI in [7], in test [8], in test [9], in [10] and in test [11] was above 100 µM throughout.

On to `CC(C)c1ccc(/C=C2\CSCC3=C2N=C2SCC(=O)N2C3c2ccc(C(C)C)cc2)cc1` (stereo not drawn), for which the TGI in [1], in test [2], in test [3], in test [4], in [5] and in test [6] was above 100 µM in each case. Moreover, the TGI in test [7], in test [8], in test [9], in [10] and in [11] was above 100 µM each time.

As to `C(#Cc1ccccc1)SC1=C(c2ccccc2)S/C(=C(\SC#Cc2ccccc2)c2ccccc2)S1`, the TGI in [1], in test [2], in [3], in [4], in test [5] and in [6] was above 100 µM throughout. The TGI in test [7], in test [8], in test [9], in [10] and in test [11] was above 100 µM each time.

For `O=S(=O)(O)c1ccc2c(N=Nc3ccc(Sc4ccc(N=Nc5c(O)ccc6cc(S(=O)(=O)O)ccc56)cc4)cc3)c(O)ccc2c1`, the TGI in test [1], in test [2], in [3], in test [4], in [5] and in [6] was above 100 µM each time. The TGI in [7], in [8], in test [9], in test [10] and in test [11] was above 100 µM in each case.

On to `Cc1csc(-n2c(C)nc3cc(Cl)ccc3c2=O)n1`, for which the TGI in [1], in test [2], in [3], in test [4], in [5] and in test [6] was above 100 µM throughout. The TGI in test [7], in test [8], in [9], in test [10] and in [11] was above 100 µM each time.

In the case of `CC[C@@]1(O)C(=O)OCc2c1cc1n(c2=O)Cc2c-1nc1ccccc1c2/C=N\NC(=O)C(N)Cc1c[nH]c2ccccc12` (stereo partly drawn), the TGI in test [1] was above 21.7 µM; in test [2] it was 11.9 µM; in [3], 0.446 µM; in test [4], above 100 µM; in [5] it was 15.5 µM; in test [6], above 100 µM. Besides, the TGI in test [7] was above 100 µM; in test [8], 19.6 µM; in test [9], 0.584 µM; in [10] it was above 42.7 µM; in [11] it was above 81.5 µM.

As for `CC(C)NC(=O)OCc1c(COC(=O)NC(C)C)c(-c2cc[n+](COC(=O)C3CCCCC3)cc2)n2c1CCC2`, the TGI in test [1], in test [2], in test [3], in [4], in test [5] and in [6] was above 100 µM each time. In addition, the TGI in test [7], in [8], in [9], in test [10] and in [11] was above 100 µM each time.

Consider `C=CCNC(=S)/N=C/C(C(=O)Nc1ccccc1C)=C(\C)O`, for which the TGI in test [1], in test [2], in test [3], in test [4], in test [5] and in test [6] was above 100 µM in each case. Also, the TGI in test [7], in test [8], in [9], in test [10] and in test [11] was above 100 µM each time.

For `O=C(N/N=C\c1ccc([N+](=O)[O-])s1)c1ccncc1`, the TGI in test [1] is 48.8 µM; in [2], 17.7 µM; in test [3], above 60.8 µM; in test [4] it was 9.22 µM; in test [5], 19.5 µM; in [6] it was above 55.8 µM. For the same compound, the TGI in test [7] amounted to 79.3 µM; in test [8] it was 55 µM; in test [9], 43.3 µM; in test [10], 26.8 µM; in [11] it was 26 µM.
